Laboratory results from US20160113919A1 (The Board of Trustees of the Leland Stanford Junior …, priority 2014, published 2016).

Tested on: INH-resistant ΔkatG H37Rv
Experiment: microbe, parasite or virus in culture
Format: cell-based, Mycobacterium tuberculosis

| SMILES | inhibition at 50 µM (Mycobacterium tuberculosis, H37RV, RAW264.7) [%] | EC80 against ΔkatG H37Rv [µM] | microbicidal capacity compared with S-CQ or racemic CQ |
| --- | --- | --- | --- |
| CCN(CC)CCC[C@H](C)Nc1ccnc2cc(Cl)ccc12 [S-CQ, (S)-chloroquine] | 60 | – | – |
| CCN(CC)CCCC(C)Nc1ccnc2cc(Cl)ccc12 (racemic) [racemic CQ, chloroquine] | – | ~50 | – |
| CCN(CC)CCC[C@@H](C)Nc1ccnc2cc(Cl)ccc12 [R-CQ, (R)-chloroquine] | – | 1 | significantly higher |
